Patent US12391698B2, “Substituted piperidines and piperazines and methods for the treatment of CNS disorders” (SUVEN LIFE SCIENCES LIMITED, priority 2022, dated 2025)
Where a name gives a salt, the structure may show the parent alone. Read-outs that look alike come from different tables or passages of the source.

What was measured:
[1] = target: T1, cloned human 5-HT1A receptor (Homo sapiens, UniProt P08908); experiment: Determination of Ki at 5-HT1A receptor (radioligand binding, [3H]-8-Hydroxy DPAT); details: HEK293-EBNA recombinant cells; [3H]-8-Hydroxy DPAT 0.8 nM; read-out: Ki h5-HT1A
T1 construct: expressed in transfected cells; host or cells: HEK293-EBNA
T1 sequence (P08908 1-422): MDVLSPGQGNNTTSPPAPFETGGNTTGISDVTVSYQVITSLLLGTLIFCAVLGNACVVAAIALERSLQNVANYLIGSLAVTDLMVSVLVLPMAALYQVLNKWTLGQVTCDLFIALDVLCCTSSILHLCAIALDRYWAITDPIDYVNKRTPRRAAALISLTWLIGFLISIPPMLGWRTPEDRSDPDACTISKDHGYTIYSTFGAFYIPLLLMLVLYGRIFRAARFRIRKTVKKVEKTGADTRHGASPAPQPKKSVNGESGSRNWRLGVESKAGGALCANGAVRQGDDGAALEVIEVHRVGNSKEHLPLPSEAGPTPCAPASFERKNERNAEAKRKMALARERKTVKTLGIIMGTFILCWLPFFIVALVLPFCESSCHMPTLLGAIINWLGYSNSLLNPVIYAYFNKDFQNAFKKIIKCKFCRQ
Description: (§1) Compounds were tested according to the following procedure.
(§2) • Receptor source: Recombinant mammalian cells (HEK293-EBNA) • Radioligand: [^3H]-8-Hydroxy DPAT (200 Ci/mmol) • Final ligand concentration: 0.8 nM • Non-specific determinant: 0.1 mM U92016A • Reference compound: U92016A • Positive control: U92016A Incubation Conditions:
(§3) Reactions were carried out in buffer with pH 7.4 containing 50 mM Tris-HCl, 0.5 mM EDTA, 10 mM MgSO4, 0.1% Ascorbic acid for 2 h at r.t. The reaction was terminated by rapid vacuum filtration onto the glass fiber filters. Radioactivity trapped onto the filters was determined and compared to the control values in order to ascertain any interactions of the test compound(s) with cloned human 5-HT1A receptor binding site.

[2] = target: T2, cloned human 5-HT2A receptor (Homo sapiens, UniProt P28223); experiment: Determination of Ki at 5-HT2A receptor (radioligand binding, [3H]-Ketanserine); details: CHO-K1 recombinant cells; [3H]-Ketanserine 1.25 nM; read-out: Ki h5-HT2A
T2 construct: expressed in transfected cells; host or cells: CHO-K1
T2 sequence (P28223 whole entry): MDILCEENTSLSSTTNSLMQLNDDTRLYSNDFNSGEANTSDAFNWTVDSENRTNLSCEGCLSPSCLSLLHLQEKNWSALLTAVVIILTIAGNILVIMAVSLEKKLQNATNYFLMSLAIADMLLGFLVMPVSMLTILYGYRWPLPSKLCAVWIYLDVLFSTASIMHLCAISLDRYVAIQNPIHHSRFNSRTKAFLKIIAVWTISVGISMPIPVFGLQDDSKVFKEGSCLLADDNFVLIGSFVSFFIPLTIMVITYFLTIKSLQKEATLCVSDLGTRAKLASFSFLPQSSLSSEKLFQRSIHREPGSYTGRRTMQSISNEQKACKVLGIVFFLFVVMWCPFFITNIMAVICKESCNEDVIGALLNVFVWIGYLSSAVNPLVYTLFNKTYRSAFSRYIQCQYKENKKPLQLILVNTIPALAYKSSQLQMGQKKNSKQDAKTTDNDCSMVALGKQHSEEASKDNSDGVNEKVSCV
Description: as §1
as §2, with “(CHO-K1)” for “(HEK293-EBNA)”, “[^3H]-Ketanserine (41.9” for “[^3H]-8-Hydroxy DPAT (200”, “1.25” for “0.8”, “1-Napthyl piperazine (1-NP)” for “U92016A”
as §3, with “4” for “0.5”, “CaCl2),” for “EDTA, 10 mM MgSO4,”, “1” for “2”, “5-HT2A” for “5-HT1A”

[3] = target: cloned human SERT receptor (Homo sapiens, UniProt P31645); experiment: Determination of Ki at SERT receptor (SPA binding, [3H]-Citalopram); details: HEK293 recombinant cells, [3H]-Citalopram 2 nM, read-out: Ki hSERT
Chain of cloned human SERT receptor (P31645 whole entry): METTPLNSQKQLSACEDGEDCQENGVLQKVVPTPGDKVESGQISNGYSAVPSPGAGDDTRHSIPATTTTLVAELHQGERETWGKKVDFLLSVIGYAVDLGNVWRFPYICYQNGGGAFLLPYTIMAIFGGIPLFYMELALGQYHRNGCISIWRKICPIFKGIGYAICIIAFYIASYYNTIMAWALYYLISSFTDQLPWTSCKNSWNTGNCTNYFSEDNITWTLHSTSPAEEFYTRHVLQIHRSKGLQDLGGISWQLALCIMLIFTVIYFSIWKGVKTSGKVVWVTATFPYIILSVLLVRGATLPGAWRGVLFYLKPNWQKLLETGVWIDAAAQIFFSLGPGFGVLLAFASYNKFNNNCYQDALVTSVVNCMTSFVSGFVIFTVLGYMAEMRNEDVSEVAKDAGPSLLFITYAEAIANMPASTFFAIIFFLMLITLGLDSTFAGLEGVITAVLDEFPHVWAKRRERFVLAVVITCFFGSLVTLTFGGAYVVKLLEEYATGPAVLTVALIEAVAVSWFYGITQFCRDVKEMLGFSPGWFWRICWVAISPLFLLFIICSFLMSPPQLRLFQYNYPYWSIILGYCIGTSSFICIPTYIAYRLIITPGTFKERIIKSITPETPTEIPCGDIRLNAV
Description: as §1
• Receptor source: Recombinant mammalian cells (HEK293) • Radioligand: [^3H]-Citalopram (80.8 Ci/mmol) • Final ligand concentration: 2 nM • Non-specific determinant: 0.1 mM Venlafaxine • Reference compound: Venlafaxine • Positive control: Venlafaxine Incubation Conditions:
Reactions were carried out in buffer with pH 7.4 containing 50 mM Tris-HCl, 150 mM NaCl, 5 mM KCl and scintillation proximity assay (SPA) beads (0.1 mg/well) for 3 h at r.t. Radioactivity proximal to SPA beads was determined by scintillation proximity assay and compared to the control values in order to ascertain any interactions of the test compound(s) with cloned human SERT receptor binding site.
Reference: Journal of Pharmacology and Experimental Therapeutics, 1987, 242 (1), 364-371.

[4] = target: T3, hD2S (cloned human dopamine D2S receptor) (Homo sapiens, UniProt P14416); experiment: Determination of Ki at D2S receptor (radioligand binding, [3H]-Raclopride); details: CHO-K1 recombinant cells; [3H]-Raclopride 4 nM; read-out: Ki hD2S
T3 construct: expressed in transfected cells; host or cells: CHO-K1
T3 sequence (P14416 1-414 isoform P14416-2): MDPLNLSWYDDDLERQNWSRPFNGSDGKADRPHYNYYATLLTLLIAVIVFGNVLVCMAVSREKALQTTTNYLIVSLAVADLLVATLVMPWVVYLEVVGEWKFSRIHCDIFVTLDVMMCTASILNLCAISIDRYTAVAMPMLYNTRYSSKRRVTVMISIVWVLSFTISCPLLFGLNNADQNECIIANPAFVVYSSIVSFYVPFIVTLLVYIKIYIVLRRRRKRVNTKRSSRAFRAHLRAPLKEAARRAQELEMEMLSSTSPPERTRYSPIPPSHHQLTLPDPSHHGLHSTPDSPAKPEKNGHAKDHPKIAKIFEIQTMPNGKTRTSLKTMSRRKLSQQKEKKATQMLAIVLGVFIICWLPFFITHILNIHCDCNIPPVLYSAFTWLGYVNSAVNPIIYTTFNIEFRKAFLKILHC
Description: as §1
• Receptor source: Recombinant mammalian cells (CHO-K1) • Radioligand: [^3H]-Raclopride (80.8 Ci/mmol) • Final ligand concentration: 4 nM • Non-specific determinant: 0.1 mM Haloperidol • Reference compound: Haloperidol • Positive control: Haloperidol Incubation Conditions:
as §3, with “120” for “0.5”, “NaCl, 5” for “EDTA, 10”, “KCl, 5 mM MgCl2, 1 mM EDTA” for “MgSO4, 0.1% Ascorbic acid”, “dopamine […]” for “5-HT1A”

SMILES	Ki [1] [nM]	Ki [2] [nM]	Ki ([3]; cells printed in μM) [µM]	Ki [4] [nM]	Ki [3] [µM]
O=C1C[C@@H]2CCCN2C(=O)N1CCCN1CCC(c2noc3ccccc23)CC1 [Example 44, 2-[3-(4-Benzo[d]isoxazol-3-yl-piperidin-1-yl)-propyl]-tetrahydro-pyrrolo[1,2-c]pyrimidine-1,3-dione, oxalate]	531	59.9	> 10	119	
CC(C)N1CCN2C(=O)N(CCCCN3CCN(c4nsc5ccccc45)CC3)C(=O)C[C@H]2C1 [Example 40, 7-[4-(4-Benzo[d]isothiazol-3-yl-piperazin-1-yl)-butyl]-2-isopropyl-hexahydro-pyrazino[1,2-c]pyrimidine-6,8-dione fumarate]	0.5	1.6		5	1.25
O=C1C[C@@H]2CCCN2C(=O)N1CCCCN1CCC(c2noc3ccccc23)CC1 [Example 42, 2-{4-[4-(Benzo[d]isoxazol-3-yl)-piperidin-1-yl]-butyl}-tetrahydro-pyrrolo[1,2-c]pyrimidine-1,3-dione, oxalate]	8.7	11.6	> 10	37.3	
O=C1C[C@@H]2CCCCN2C(=O)N1CCCCN1CCN(c2nsc3ccccc23)CC1 [Example 12, 2-[4-(4-Benzo[d]isothiazol-3-yl-piperazin-1-yl)-butyl]-hexahydro-pyrido[1,2-c]pyrimidine-1,3-dione]	0.1	0.6		0.6	0.181
COC(=O)N1CCN2C(=O)N(CCCCN3CCN(c4nsc5ccccc45)CC3)C(=O)C[C@@H]2C1 [Example 33, 7-[4-(4-Benzo[d]isothiazol-3-yl-piperazin-1-yl)-butyl]-6,8-dioxo-octahydro-pyrazino[1,2-c]pyrimidine-2-carboxylic acid methyl ester]	0.3	0.8		1.7	0.0611
O=C(OCc1ccccc1)N1CCN2C(=O)N(CCCCN3CCN(c4nsc5ccccc45)CC3)C(=O)C[C@@H]2C1 [Example 19, 7-[4-(4-Benzo[d]isothiazol-3-yl-piperazin-1-yl)-butyl]-6,8-dioxo-octahydro-pyrazino[1,2-c]pyrimidine-2-carboxylic acid benzyl ester]	1.1	0.8		3.2	0.126
O=C1C[C@@H]2CCCCN2C(=O)N1CCCCN1CCC(c2noc3cc(F)ccc23)CC1 [Example 13, 2-{4-[4-(6-Fluoro-benzo[d]isoxazol-3-yl)-piperidin-1-yl]-butyl}-hexahydro-pyrido[1,2-c]pyrimidine-1,3-dione]	14.9	2.5		2.5	1.63
COC(=O)N1CCN2C(=O)N(CCCCN3CCN(c4nsc5ccccc45)CC3)C(=O)CC2C1 (stereo not shown) [Example 34, 7-[4-(4-Benzo[d]isothiazol-3-yl-piperazin-1-yl)-butyl]-6,8-dioxo-octahydro-pyrazino[1,2-c]pyrimidine-2-carboxylic acid methyl ester fumarate]	1.3	0.5		2.4	0.152
CC(=O)N1CCN2C(=O)N(CCCCN3CCN(c4nsc5ccccc45)CC3)C(=O)C[C@@H]2C1 [Example 37, 2-Acetyl-7-[4-(4-benzo[d]isothiazol-3-yl-piperazin-1-yl)-butyl]-hexahydro-pyrazino[1,2-c]pyrimidine-6,8-dione]	0.3	1.5		8.2	1.1
CC(=O)N1CCN2C(=O)N(CCCCN3CCN(c4nsc5ccccc45)CC3)C(=O)C[C@@H]2C1 [Example 38, 2-Acetyl-7-[4-(4-benzo[d]isothiazol-3-yl-piperazin-1-yl)-butyl]-hexahydro-pyrazino[1,2-c]pyrimidine-6,8-dione fumarate]		2.2		4.5	0.953
O=C1C[C@@H]2CCCCN2C(=O)N1CCCCN1CCC(c2c[nH]c3ccc(F)cc23)CC1 [Example 15, 2-{4-[4-(5-Fluoro-1H-indol-3-yl)-piperidin-1-yl]-butyl}-hexahydro-pyrido[1,2-c]pyrimidine-1,3-dione]	2.2	53.6		2.9	0.0269
O=C1C[C@@H]2CCCN2C(=O)N1CCCCN1CCC(c2c[nH]c3ccc(F)cc23)CC1 [Example 7, 2-{4-[4-(5-Fluoro-1H-indol-3-yl)-piperidin-1-yl]-butyl}-tetrahydro-pyrrolo[1,2-c]pyrimidine-1,3-dione oxalate]	1.8	49.9		4.5	0.0385
O=C(OCc1ccccc1)N1CCN2C(=O)N(CCCCN3CCC(c4noc5cc(F)ccc45)CC3)C(=O)CC2C1 (stereo not shown) [Example 22, 7-{4-[4-(6-Fluoro-benzo[d]isoxazol-3-yl)-piperidin-1-yl]-butyl}-6,8-dioxo-octahydro-pyrazino[1,2-c]pyrimidine-2-carboxylic acid benzyl ester fumarate]	84.1	1.5		2.5	0.279
O=C1C[C@@H]2CCCN2C(=O)N1CCCN1CCC(c2c[nH]c3ccc(F)cc23)CC1 [Example 25, 2-{3-[4-(5-Fluoro-1H-indol-3-yl)-piperidin-1-yl]-propyl}-tetrahydro-pyrrolo[1,2-c]pyrimidine-1,3-dione]	58.6	195		23.8	0.298
O=C1C[C@H]2COCCN2C(=O)N1C[C@H]1CCCC[C@H]1CN1CCN(c2nsc3ccccc23)CC1 [Example 30, 7-[2-(4-Benzo[d]isothiazol-3-yl-piperazin-1-ylmethyl)-cyclohexylmethyl]-tetrahydro-pyrimido[6,1-c][1,4]oxazine-6,8-dione]		8.5		0.6	9.35
O=C1C[C@@H]2CCCN2C(=O)N1CCCN1CCC(c2noc3cc(F)ccc23)CC1 [Example 24, 2-{3-[4-(6-Fluoro-benzo[d]isoxazol-3-yl)-piperidin-1-yl]-propyl}-tetrahydro-pyrrolo[1,2-c]pyrimidine-1,3-dione]	1690	7.1	> 10	103	
COC(=O)N1CCN2C(=O)N(CCCCN3CCC(c4noc5cc(F)ccc45)CC3)C(=O)C[C@@H]2C1 [Example 36, 7-{4-[4-(6-Fluoro-benzo[d]isoxazol-3-yl)-piperidin-1-yl]-butyl}-6,8-dioxo-octahydro-pyrazino[1,2-c]pyrimidine-2-carboxylic acid methyl ester fumarate]	130	2.2		3.3	1.48
COC(=O)N1CCN2C(=O)N(CCCCN3CCC(c4noc5cc(F)ccc45)CC3)C(=O)C[C@@H]2C1 [Example 35, 7-{4-[4-(6-Fluoro-benzo[d]isoxazol-3-yl)-piperidin-1-yl]-butyl}-6,8-dioxo-octahydro-pyrazino[1,2-c]pyrimidine-2-carboxylic acid methyl ester]	45.7	4.8		4.7	0.975
